Measured values reported in US10501489B2, “C17-alkanediyl and alkenediyl derivatives of oleanolic acid and methods of use thereof” (REATA PHARMACEUTICALS, INC., priority 2012, dated 2019).

Test system: RAW264.7 mouse macrophages
Test: Suppression of IFNγ-induced NO production (nitric oxide production and cell viability assay)
Assay type: cell-based
Settings: RAW264.7 cells, drug pre-treatment 2 hours, then recombinant mouse IFNγ 24 hours; Griess reagent; normalized to cell viability (WST-1)
Protocol: Assay results for the suppression of IFNγ-induced NO production are shown for several of the compounds of the present invention in Table 1 below. […] Details regarding this assay are provided in the Examples section below. Nitric Oxide Production and Cell Viability Assay. […] On the next day, cells were pre-treated with DMSO or drug (O-200 nM dose range) for 2 hours, and then treated with recombinant mouse IFNγ (R&D Systems) for 24 hours. Nitric Oxide concentration in media was determined using the Griess reagent system (Promega). Cell viability was determined using WST-1 reagent (Roche). IC50 values were determined based on the suppression of IFNγ induced Nitric Oxide production normalized to cell viability.

## CC1(C)CC[C@]2(CCC(=O)N3CCC(F)(F)C3)CC[C@]3(C)[C@H](C(=O)C=C4[C@@]5(C)C=C(C#N)C(=O)C(C)(C)[C@@H]5CC[C@]43C)[C@@H]2C1 [TX64049]
  IC50: 2 nM

## CCNC(=O)CC[C@]12CCC(C)(C)C[C@H]1[C@H]1C(=O)C=C3[C@@]4(C)C=C(C#N)C(=O)C(C)(C)[C@@H]4CC[C@@]3(C)[C@]1(C)CC2 [TX63768]
  IC50: 0.3 nM

## CC(=O)OCC[C@]12CCC(C)(C)C[C@H]1[C@H]1C(=O)C=C3[C@@]4(C)C=C(C#N)C(=O)C(C)(C)[C@@H]4CC[C@@]3(C)[C@]1(C)CC2 [TX63610]
  IC50: 2.2 nM

## COC(=O)CC[C@]12CCC(C)(C)C[C@H]1[C@H]1C(=O)C=C3[C@@]4(C)C=C(C#N)C(=O)C(C)(C)[C@@H]4CC[C@@]3(C)[C@]1(C)CC2 [TX63742]
  IC50: 2 nM

## COCC[C@]12CCC(C)(C)C[C@H]1[C@H]1C(=O)C=C3[C@@]4(C)C=C(C#N)C(=O)C(C)(C)[C@@H]4CC[C@@]3(C)[C@]1(C)CC2 [TX63609]
  IC50: 2.9 nM

## CCNC(=O)OC[C@]12CCC(C)(C)C[C@H]1[C@H]1C(=O)C=C3[C@@]4(C)C=C(C#N)C(=O)C(C)(C)[C@@H]4CC[C@@]3(C)[C@]1(C)CC2 [TX63930]
  IC50: 0.9 nM

## CC1(C)CC[C@]2(CCO)CC[C@]3(C)[C@H](C(=O)C=C4[C@@]5(C)C=C(C#N)C(=O)C(C)(C)[C@@H]5CC[C@]43C)[C@@H]2C1 [TX63608]
  IC50: 1.1 nM

## COC(=O)/C=C/[C@]12CCC(C)(C)C[C@H]1[C@H]1C(=O)C=C3[C@@]4(C)C=C(C#N)C(=O)C(C)(C)[C@@H]4CC[C@@]3(C)[C@]1(C)CC2 [TX63743]
  IC50: 3.2 nM

## CCNC(=O)OCC[C@]12CCC(C)(C)C[C@H]1[C@H]1C(=O)C=C3[C@@]4(C)C=C(C#N)C(=O)C(C)(C)[C@@H]4CC[C@@]3(C)[C@]1(C)CC2 [TX63981]
  IC50: 3 nM

## CC1(C)CC[C@]2(CCC(=O)Nc3ccccc3)CC[C@]3(C)[C@H](C(=O)C=C4[C@@]5(C)C=C(C#N)C(=O)C(C)(C)[C@@H]5CC[C@]43C)[C@@H]2C1 [TX64059]
  IC50: 1.4 nM

## CC(C)OC(=O)CC[C@]12CCC(C)(C)C[C@H]1[C@H]1C(=O)C=C3[C@@]4(C)C=C(C#N)C(=O)C(C)(C)[C@@H]4CC[C@@]3(C)[C@]1(C)CC2 [TX64043]
  IC50: 21 nM

## CC(=O)NNC(=O)CC[C@]12CCC(C)(C)C[C@H]1[C@H]1C(=O)C=C3[C@@]4(C)C=C(C#N)C(=O)C(C)(C)[C@@H]4CC[C@@]3(C)[C@]1(C)CC2 [TX64045]
  IC50: 5.6 nM

## CC1(C)CC[C@]2(CCC(=O)NCC(F)(F)F)CC[C@]3(C)[C@H](C(=O)C=C4[C@@]5(C)C=C(C#N)C(=O)C(C)(C)[C@@H]5CC[C@]43C)[C@@H]2C1 [TX63764]
  IC50: 0.7 nM

## CC1(C)CC[C@]2(CCC(=O)NC(C)(C)C)CC[C@]3(C)[C@H](C(=O)C=C4[C@@]5(C)C=C(C#N)C(=O)C(C)(C)[C@@H]5CC[C@]43C)[C@@H]2C1 [TX64065]
  IC50: 0.6 nM

## CONC(=O)CC[C@]12CCC(C)(C)C[C@H]1[C@H]1C(=O)C=C3[C@@]4(C)C=C(C#N)C(=O)C(C)(C)[C@@H]4CC[C@@]3(C)[C@]1(C)CC2 [TX64056]
  IC50: 0.3 nM

## CC1(C)CC[C@]2(COC(=O)n3ccnc3)CC[C@]3(C)[C@H](C(=O)C=C4[C@@]5(C)C=C(C#N)C(=O)C(C)(C)[C@@H]5CC[C@]43C)[C@@H]2C1 [TX63868]
  IC50: 0.7 nM

## CC1(C)CC[C@]2(COC(=O)N3CCCC3)CC[C@]3(C)[C@H](C(=O)C=C4[C@@]5(C)C=C(C#N)C(=O)C(C)(C)[C@@H]5CC[C@]43C)[C@@H]2C1 [TX63927]
  IC50: 1.3 nM

## CC1(C)CC[C@]2(CCC(=O)N3CCCC3)CC[C@]3(C)[C@H](C(=O)C=C4[C@@]5(C)C=C(C#N)C(=O)C(C)(C)[C@@H]5CC[C@]43C)[C@@H]2C1 [TX63949]
  IC50: 0.6 nM

## CC1(C)CC[C@]2(CCC(=O)NC3COC3)CC[C@]3(C)[C@H](C(=O)C=C4[C@@]5(C)C=C(C#N)C(=O)C(C)(C)[C@@H]5CC[C@]43C)[C@@H]2C1 [TX64044]
  IC50: 1.3 nM

## CC1(C)CC[C@]2(CCC(=O)NC3CCCCC3)CC[C@]3(C)[C@H](C(=O)C=C4[C@@]5(C)C=C(C#N)C(=O)C(C)(C)[C@@H]5CC[C@]43C)[C@@H]2C1 [TX64057]
  IC50: 0.8 nM

## CC1(C)CC[C@]2(CCC(=O)N3CCN(C(=O)OC(C)(C)C)CC3)CC[C@]3(C)[C@H](C(=O)C=C4[C@@]5(C)C=C(C#N)C(=O)C(C)(C)[C@@H]5CC[C@]43C)[C@@H]2C1 [TX64124]
  IC50: 3.4 nM

## CC1(C)CC[C@]2(CCC(=O)N3CCC3)CC[C@]3(C)[C@H](C(=O)C=C4[C@@]5(C)C=C(C#N)C(=O)C(C)(C)[C@@H]5CC[C@]43C)[C@@H]2C1 [TX63950]
  IC50: 0.4 nM

## CC1(C)CC[C@]2(CCC(N)=O)CC[C@]3(C)[C@H](C(=O)C=C4[C@@]5(C)C=C(C#N)C(=O)C(C)(C)[C@@H]5CC[C@]43C)[C@@H]2C1 [TX64074]
  IC50: 0.3 nM

## CC1(C)CC[C@]2(CCC(=O)N3CCOCC3)CC[C@]3(C)[C@H](C(=O)C=C4[C@@]5(C)C=C(C#N)C(=O)C(C)(C)[C@@H]5CC[C@]43C)[C@@H]2C1 [TX63763]
  IC50: 0.4 nM

## CC1(C)CC[C@]2(CCCO)CC[C@]3(C)[C@H](C(=O)C=C4[C@@]5(C)C=C(C#N)C(=O)C(C)(C)[C@@H]5CC[C@]43C)[C@@H]2C1 [TX63744]
  IC50: 1.1 nM

## CC1(C)CC[C@]2(CCC(=O)OC3CCNCC3)CC[C@]3(C)[C@H](C(=O)C=C4[C@@]5(C)C=C(C#N)C(=O)C(C)(C)[C@@H]5CC[C@]43C)[C@@H]2C1 [TX64055]
  IC50: 1.7 nM

## CC(C)NC(=O)CC[C@]12CCC(C)(C)C[C@H]1[C@H]1C(=O)C=C3[C@@]4(C)C=C(C#N)C(=O)C(C)(C)[C@@H]4CC[C@@]3(C)[C@]1(C)CC2 [TX64064]
  IC50: 0.4 nM

## CC1(C)CC[C@]2(CCC(=O)Nc3ccccn3)CC[C@]3(C)[C@H](C(=O)C=C4[C@@]5(C)C=C(C#N)C(=O)C(C)(C)[C@@H]5CC[C@]43C)[C@@H]2C1 [TX64068]
  IC50: 1.1 nM

## CC1(C)CC[C@]2(CCC(=O)N3CCNCC3)CC[C@]3(C)[C@H](C(=O)C=C4[C@@]5(C)C=C(C#N)C(=O)C(C)(C)[C@@H]5CC[C@]43C)[C@@H]2C1 [TX64135]
  IC50: 1.5 nM

## COC(=O)CNC(=O)CC[C@]12CCC(C)(C)C[C@H]1[C@H]1C(=O)C=C3[C@@]4(C)C=C(C#N)C(=O)C(C)(C)[C@@H]4CC[C@@]3(C)[C@]1(C)CC2 [TX64052]
  IC50: 2 nM

## CC1(C)CC[C@]2(COC(=O)N3CCOCC3)CC[C@]3(C)[C@H](C(=O)C=C4[C@@]5(C)C=C(C#N)C(=O)C(C)(C)[C@@H]5CC[C@]43C)[C@@H]2C1 [TX63926]
  IC50: 0.7 nM

## CN(C)C(=O)CC[C@]12CCC(C)(C)C[C@H]1[C@H]1C(=O)C=C3[C@@]4(C)C=C(C#N)C(=O)C(C)(C)[C@@H]4CC[C@@]3(C)[C@]1(C)CC2 [TX64060]
  IC50: 0.4 nM

## CC1(C)CC[C@]2(CCC(=O)NCC(=O)O)CC[C@]3(C)[C@H](C(=O)C=C4[C@@]5(C)C=C(C#N)C(=O)C(C)(C)[C@@H]5CC[C@]43C)[C@@H]2C1 [TX64054]
  IC50: 97 nM

## CC1(C)CC[C@]2(CCC(=O)N3CC[C@H](O)C3)CC[C@]3(C)[C@H](C(=O)C=C4[C@@]5(C)C=C(C#N)C(=O)C(C)(C)[C@@H]5CC[C@]43C)[C@@H]2C1 [TX64047]
  IC50: 3.3 nM

## CC1(C)CC[C@]2(CCC(=O)N3CCC(O)CC3)CC[C@]3(C)[C@H](C(=O)C=C4[C@@]5(C)C=C(C#N)C(=O)C(C)(C)[C@@H]5CC[C@]43C)[C@@H]2C1 [TX64048]
  IC50: 1.2 nM

## CC1(C)CC[C@]2(CCC(=O)OCc3ccccc3)CC[C@]3(C)[C@H](C(=O)C=C4[C@@]5(C)C=C(C#N)C(=O)C(C)(C)[C@@H]5CC[C@]43C)[C@@H]2C1 [TX64066]
  IC50: 20 nM

## CC1(C)CC[C@]2(CCC(=O)Oc3ccccc3)CC[C@]3(C)[C@H](C(=O)C=C4[C@@]5(C)C=C(C#N)C(=O)C(C)(C)[C@@H]5CC[C@]43C)[C@@H]2C1 [TX64046]
  IC50: 8.5 nM

## CC1(C)CC[C@]2(CCC(=O)O)CC[C@]3(C)[C@H](C(=O)C=C4[C@@]5(C)C=C(C#N)C(=O)C(C)(C)[C@@H]5CC[C@]43C)[C@@H]2C1 [TX63762]
  IC50: 1.2 nM

## CC[C@]12CCC(C)(C)C[C@H]1[C@H]1C(=O)C=C3[C@@]4(C)C=C(C#N)C(=O)C(C)(C)[C@@H]4CC[C@@]3(C)[C@]1(C)CC2 [TX63403]
  IC50: 8.6 nM

## CC1(C)CC[C@]2(CCC(=O)OC3CCCCC3)CC[C@]3(C)[C@H](C(=O)C=C4[C@@]5(C)C=C(C#N)C(=O)C(C)(C)[C@@H]5CC[C@]43C)[C@@H]2C1 [TX64058]
  IC50: 29 nM

## CNC(=O)CC[C@]12CCC(C)(C)C[C@H]1[C@H]1C(=O)C=C3[C@@]4(C)C=C(C#N)C(=O)C(C)(C)[C@@H]4CC[C@@]3(C)[C@]1(C)CC2 [TX63770]
  IC50: 0.2 nM

## CC1(C)CC[C@]2(CCC(=O)OC3CCN(C(=O)OC(C)(C)C)CC3)CC[C@]3(C)[C@H](C(=O)C=C4[C@@]5(C)C=C(C#N)C(=O)C(C)(C)[C@@H]5CC[C@]43C)[C@@H]2C1 [TX64053]
  IC50: 37 nM

## CCOC(=O)CC[C@]12CCC(C)(C)C[C@H]1[C@H]1C(=O)C=C3[C@@]4(C)C=C(C#N)C(=O)C(C)(C)[C@@H]4CC[C@@]3(C)[C@]1(C)CC2 [TX64042]
  IC50: 10 nM

## CC1(C)CC[C@]2(CCC(=O)OC(C)(C)C)CC[C@]3(C)[C@H](C(=O)C=C4[C@@]5(C)C=C(C#N)C(=O)C(C)(C)[C@@H]5CC[C@]43C)[C@@H]2C1 [TX64067]
  IC50: 14 nM

## CCNC(=O)OCCC[C@]12CCC(C)(C)C[C@H]1[C@H]1C(=O)C=C3[C@@]4(C)C=C(C#N)C(=O)C(C)(C)[C@@H]4CC[C@@]3(C)[C@]1(C)CC2 [TX63983]
  IC50: 5.4 nM
